Molecules are shown by their SMILES. Read-outs that look alike come from different tables or passages of the source.

Test [1] deals with T1, Human recombinant SCP-2 (Homo sapiens, UniProt P22307).
T1 sequence (P22307 1-143 isoform P22307-2): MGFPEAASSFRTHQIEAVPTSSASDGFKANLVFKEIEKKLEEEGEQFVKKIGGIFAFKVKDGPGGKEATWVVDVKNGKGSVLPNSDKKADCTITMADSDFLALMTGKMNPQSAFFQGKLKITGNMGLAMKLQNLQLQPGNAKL
Description: NBDS displacement assay. The class given is binding. The settings on record: for Max % Displacement: displacement of SCP-2 (500 nM)-bound NBDS (500 nM), 24°C, 10 mM phosphate buffer pH 7.4, n=4.

The target in test [2] is T1, Human recombinant SCP-2. Description: Reverse and forward titrations of NBDS with SCP-2. The class given is binding. The settings on record: forward titration, SCP-2 500 nM, NBDS 0–1.8 μM.
The mark [3] stands for this setting: Ki = (Kd,NBDS × EC50)/[NBDS]total, NBDS 0.5 μM.
[4] abbreviates: Ki, Ki = (Kd,NBDS × EC50)/[NBDS]total, NBDS 0.5 μM.

Broadly, the Ki is a dissociation constant, usually derived from enzyme kinetics or from competition with a known ligand. For the molecule `CCCCC/C=C\C/C=C\C/C=C\C/C=C\CCCC(=O)NCCO` [Compound 1, N-arachidonoylethanolamine], on Human recombinant SCP-2 [1] (setting [3]), the inhibitory constant (Ki) is 680 ± 50 nM. Further, the “Max % Displacement” value on Human recombinant SCP-2 [1] is listed as 59.3 ± 1.2%.

Broadly, the EC50 is the concentration giving half of the maximal effect. Consider `CCCCC/C=C\C/C=C\C/C=C\C/C=C\CCCC(=O)OC(CO)CO` [Compound 2, 2-arachidonoylglycerol], for which, on Human recombinant SCP-2 [1], the EC50 is 840 ± 40 nM and the “Max % Displacement” value is on record as 55.1 ± 1.0%. Moreover, at Human recombinant SCP-2 [1] (setting [4]), the inhibitory constant (Ki) was 370 ± 20 nM.

For `CCCCC/C=C\C/C=C\C/C=C\C/C=C\CCCC(=O)OCC(O)CO` (stereo not shown) [Compound 3, 1-arachidonoyl glycerol], at Human recombinant SCP-2 [1], the concentration giving a half-maximal response (EC50) amounted to 1870 ± 50 nM and the “Max % Displacement” value stood at 57.7 ± 0.7%. Also, the Ki on Human recombinant SCP-2 [1] (setting [4]) stood at 820 ± 20 nM.

Regarding `CCCCC/C=C\C/C=C\C/C=C\C/C=C\CCCC(=O)NC(CO)CO` [Compound 4, N-arachidonoyl serinol], the Ki at Human recombinant SCP-2 [1] (setting [3]) is 2950 ± 120 nM. At Human recombinant SCP-2 [1] (NBDS displacement, versus 2-AG (2)), the “fold reduction in potency compared to 2” value was 8 fold. In addition, at Human recombinant SCP-2 [1], the “Max % Displacement” value is listed as 69.2 ± 1.7%.

For `CCCCC/C=C\C/C=C\C/C=C\C/C=C\CCCC(=O)NCCF` [Compound 5, arachidonoyl-2’-fluoroethylamide], the Ki on Human recombinant SCP-2 [1] (setting [3]) was 2780 ± 210 nM. Moreover, the “Max % Displacement” value at Human recombinant SCP-2 [1] worked out at 64.4 ± 2.2%.

Regarding `CCCCC/C=C\C/C=C\C/C=C\C/C=C\CCCC(=O)OCCN` [Compound 6, O-arachidonoylethanolamine], on Human recombinant SCP-2 [1] (setting [3]), the Ki is 1600 ± 20 nM. The “Max % Displacement” value on Human recombinant SCP-2 [1] was found to be 94.7 ± 1.6%.

Consider `CCCCC/C=C\C/C=C\C/C=C\C/C=C\CCCC(=O)NCC(=O)O` [Compound 7, N-arachidonoyl glycine], for which the Ki at Human recombinant SCP-2 [1] (setting [3]) stood at 1220 ± 30 nM. For the same molecule, the “Max % Displacement” value at Human recombinant SCP-2 [1] is 82.0 ± 0.8%.

Take `CCCCC/C=C\C/C=C\C/C=C\C/C=C\CCCC(=O)NCCc1c[nH]c2ccc(O)cc12` [Compound 8, N-arachidonoyl serotonin]: on Human recombinant SCP-2 [1] (setting [3]), the Ki worked out at 1460 ± 20 nM. The “Max % Displacement” value at Human recombinant SCP-2 [1] worked out at 84.8 ± 0.8%.

Take `CCCCC/C=C\C/C=C\C/C=C\C/C=C\CCCC(=O)NCCc1ccc(O)c(O)c1` [Compound 9, N-arachidonoyl dopamine]: the inhibition constant Ki on Human recombinant SCP-2 [1] (setting [3]) turned out to be 1120 ± 20 nM. In addition, the “Max % Displacement” value at Human recombinant SCP-2 [1] was determined as 94.9 ± 0.1%.

For the molecule `CCCCC/C=C\C/C=C\C/C=C\C/C=C\CCCC(=O)Nc1ccc(O)cc1` [Compound 10, N-arachidonoyl-p-aminophenol], on Human recombinant SCP-2 [1] (setting [3]), the Ki worked out at 1410 ± 30 nM. Moreover, the figures for the “Max % Displacement” value at Human recombinant SCP-2 [1] and at Human recombinant SCP-2 [1] (listed as AM404) were 89.2 ± 0.8% and 89%, respectively.

Turning to `CCCCC/C=C\C/C=C\C/C=C\C/C=C\CCCC(N)=O` [Compound 11, Arachidonoyl amide], the Ki at Human recombinant SCP-2 [1] (setting [3]) stood at 1800 ± 100 nM. The “Max % Displacement” value on Human recombinant SCP-2 [1] came to 71.1 ± 1.3%.

Consider `CCCCCCCC/C=C\CCCCCCCC(N)=O` [Compound 12, Oleamide], for which, on Human recombinant SCP-2 [1], the EC50 was determined as 13100 ± 2300 nM, the inhibition constant Ki came out at 5800 ± 1000 nM and the “Max % Displacement” value turned out to be 68.3 ± 1.7%.

On to `CC/C=C\C/C=C\C/C=C\C/C=C\C/C=C\C/C=C\CCC(=O)NCCO` [Compound 13, docosahexaenoyl ethanolamide], for which, on Human recombinant SCP-2 [1] (setting [3]), the Ki was determined as 1910 ± 40 nM. The “Max % Displacement” value at Human recombinant SCP-2 [1] was found to be 73.9 ± 1.3%.

As for `CC(=O)Nc1ccc(Nc2nc(-c3ccc(Cl)c(Cl)c3)cs2)cc1` [Compound 14], on Human recombinant SCP-2 [1] (setting [3]), the Ki was determined as 1000 ± 100 nM. Further, the “Max % Displacement” value on Human recombinant SCP-2 [1] is 96.6 ± 0.7%.

Take `CCCCCCC(CCCCCCCCCCC(=O)O)N(C)c1ccc([N+](=O)[O-])c2nonc12` (stereo not shown) [NBDS, 12-N-methyl-(7-nitrobenz-2-oxa-1,3-diazo)aminostearic acid]: the Bmax at Human recombinant SCP-2 [2] is on record as 0.89 ± 0.04 binding sites per molecule of SCP-2.

The record behind these values is publication PMC6904209 (Methods in enzymology, 2017).
